Paper PMC6651381 (Molecules, 2019)
Read-outs that look alike come from different tables or passages of the source. Marks after values point to notes of the source that are not given here.

What was measured:
mice [1] = tested on: mice; design: method as in PMID 25446027; conditions: i.p., dose protecting 50% of animals against seizures, in mg/kg; cited from earlier work
rats [2] = tested on: rats; design: method as in PMID 25446027; conditions: p.o., in mg/kg; cited from earlier work
rats [3] = tested on: rats; design: unit not given beside the values; conditions: cited from earlier work
[4] = tested on: Salmonella typhimurium TA100; assay type: cell-based; conditions: TA100, 40 ng/mL; for MI (mutagenic index): positive when MI ≥ 2
Procedure: The Ames assay was conducted by the preincubation method using S. typhimurium TA100 strain [60]. Each probe was performed in triplicate; 100 µL of the overnight bacterial culture, 50 µL of the investigated compounds at a concentration of 40 ng/mL, and 500 µL of a buffer solution were preincubated for 30 min at 37 °C and then added to 2 mL of the top agar containing histidine/biotin solution. The resulting mixture was poured onto minimal glucose plates. After 48 h incubation, the revertants were counted manually and the results were expressed as mutagenic index (MI) (MI = the number of revertant colonies induced in the tested sample/the number of spontaneous revertants in the negative control). […] DMSO served as the negative (solvent) control.

Vibrio harveyi BB7M [5] = assay type: cell-based; conditions: 40 ng/mL; for MI (mutagenic index): positive when MI ≥ 2
Procedure: (§1) In the experiment, overnight cultures of bacterial strains BB7, BB7M, BB7X, and BB7XM were used. Each culture was centrifuged and 10 µL of V. harveyi pellets was placed in 20 mL of BOSS medium. The culture was cultivated at 30 °C until the optical density reached 0.1 at 600 nm (OD600). Then, 10 µL of test compound solution (final concentration of 40 ng/mL) was added to the bacterial culture and incubated. Incubation was continued until OD600 reached 0.3–0.4. Next, 5 × 10^6 bacterial cells were spread onto BOSS agar plates with neomycin. The plates were incubated at 30 °C for 48 h and the number of neomycin-resistant colonies was counted. […] All the experiments were analyzed in three independent repetitions. Finally, MI was calculated.

Vibrio harveyi BB7X [6] = assay type: cell-based; conditions: 40 ng/mL; for MI (mutagenic index): positive when MI ≥ 2
Procedure: as §1

Vibrio harveyi BB7 [7] = assay type: cell-based; conditions: BB7, 40 ng/mL; for MI (mutagenic index): positive when MI ≥ 2
Procedure: as §1

Vibrio harveyi BB7XM [8] = experiment: Vibrio harveyi mutagenicity test, BB7XM; assay type: cell-based; conditions: 40 ng/mL; for MI (mutagenic index): positive when MI ≥ 2
Procedure: as §1

[9] = tested on: Salmonella typhimurium TA100; assay type: cell-based; conditions: for Inhib. (%) of mutagenicity: against NQNO 40 ng/mL; for Number of revertants, Mean ± SD (antimutagenicity): test compound plus NQNO 40 ng/mL, NQNO line = mutagen alone
Text: (§2) Triplicate plates were set up with each test compound concentration and the entire experiment was repeated twice.

Vibrio harveyi BB7M [10] = assay type: cell-based; conditions: for Inhib. (%) of mutagenicity: against NQNO 40 ng/mL; for Number of revertants, Mean ± SD (antimutagenicity): test compound plus NQNO 40 ng/mL, NQNO line = mutagen alone
Procedure: as §1, §2
(§3) The inhibition percentage of mutagenicity was calculated as described above in the Ames antimutagenicity assay procedure.

Vibrio harveyi BB7XM [11] = assay type: cell-based; conditions: for Inhib. (%) of mutagenicity: against NQNO 40 ng/mL; for Number of revertants, Mean ± SD (antimutagenicity): test compound plus NQNO 40 ng/mL, NQNO line = mutagen alone
Procedure: as §1, §2, §3

Vibrio harveyi BB7X [12] = assay type: cell-based; conditions: for Inhib. (%) of mutagenicity: against NQNO 40 ng/mL; for Number of revertants, Mean ± SD (antimutagenicity): test compound plus NQNO 40 ng/mL, NQNO line = mutagen alone
Procedure: as §1, §2, §3

Vibrio harveyi BB7 [13] = assay type: cell-based; conditions: for Inhib. (%) of mutagenicity: against NQNO 40 ng/mL; for Number of revertants, Mean ± SD (antimutagenicity): test compound plus NQNO 40 ng/mL, NQNO line = mutagen alone
Procedure: as §1, §2, §3

[14] = target: recombinant human P-gp membranes (Homo sapiens, UniProt P08183); experiment: P-gp ATPase activity assay (P-gp-Glo); conditions: compounds 10–100 µM, verapamil 100 µM; 5 mM Mg ATP, 37 °C, 45 min
Procedure: The changes in the ATPase activity of P-gp were determined by using the P-gp-Glo TM assay system (Promega). […] When P-gp ATPase activity is inhibited, ATP accumulates and becomes a substrate for luciferase, with a consequent increase in luminescence. The tested compounds at increasing concentration (10–100 µM) were incubated with 5 mM Mg ATP and 25 µg recombinant human P-gp membranes at 37 °C for 45 min. The luminescence signal was started by adding ATP detection buffer. After incubation at room temperature for 25 min, the samples were read in white 96-well plates on a multi-plate reader (BIOTEK).

mice [15] = tested on: mice; design: method as in PMID 25446027; conditions: i.p., printed in the ED50(MES) column; cited from earlier work
mice [16] = conditions: cited from earlier work
[17] = tested on: human glioblastoma astrocytoma cell line U373; experiment: MTT viability test on human glioblastoma cells; assay type: cell-based; conditions: U373, 10, 25, 50 or 100 µM, 24 h; listed as racemic compound
Procedure: Astrocyte cell line (ATCC, CRL-2541), human glioblastoma astrocytoma cell line U373 (ATCC, HTB17-1055), and human hepatoma HepG2 cells (ATCC, HB-8065) were used in the study. The cells were cultured in standard conditions (37 °C, 5% CO2), in EMEM medium with 2 mM glutamine and 1% non-essential amino acids, all supplemented with 10% FBS and antibiotics (penicillin–streptomycin; 10,000 U/mL; final concentration in culture medium was 1%).
The cells were seeded at a density of 1 × 10^4 in 96-well plates. Following overnight culture, the cells were treated with increasing doses of compounds 1–3 (i.e., 10, 25, 50, or 100 μM) and incubated for 24 h. Next, 10 µL of MTT (3-(4,5-dimethylthiazolyl-2)-2,5-diphenyltetrazolium bromide) reagent (Cayman) was added to each well and after 3 h of incubation (37 °C, 5% CO2) the medium was aspirated, and the formazan produced in the cells appeared as dark crystals at the bottom of the wells. Subsequently, crystal dissolving solution (Cayman) was added to each well and the optical density (OD) was determined at 570 nm on a plate reader (BIOTEK). Doxorubicin (DOX) was used as a positive control. When hepatotoxicity of test compounds was evaluated, the morphology of the cells was also determined using a bright-field inverted microscope (Nikon).

[18] = mice, i.p., dose producing toxicity in 50% of animals
[19] = mice, i.p., value printed in the scMet line

recombinant human P-gp membranes, sequence (P08183 whole entry): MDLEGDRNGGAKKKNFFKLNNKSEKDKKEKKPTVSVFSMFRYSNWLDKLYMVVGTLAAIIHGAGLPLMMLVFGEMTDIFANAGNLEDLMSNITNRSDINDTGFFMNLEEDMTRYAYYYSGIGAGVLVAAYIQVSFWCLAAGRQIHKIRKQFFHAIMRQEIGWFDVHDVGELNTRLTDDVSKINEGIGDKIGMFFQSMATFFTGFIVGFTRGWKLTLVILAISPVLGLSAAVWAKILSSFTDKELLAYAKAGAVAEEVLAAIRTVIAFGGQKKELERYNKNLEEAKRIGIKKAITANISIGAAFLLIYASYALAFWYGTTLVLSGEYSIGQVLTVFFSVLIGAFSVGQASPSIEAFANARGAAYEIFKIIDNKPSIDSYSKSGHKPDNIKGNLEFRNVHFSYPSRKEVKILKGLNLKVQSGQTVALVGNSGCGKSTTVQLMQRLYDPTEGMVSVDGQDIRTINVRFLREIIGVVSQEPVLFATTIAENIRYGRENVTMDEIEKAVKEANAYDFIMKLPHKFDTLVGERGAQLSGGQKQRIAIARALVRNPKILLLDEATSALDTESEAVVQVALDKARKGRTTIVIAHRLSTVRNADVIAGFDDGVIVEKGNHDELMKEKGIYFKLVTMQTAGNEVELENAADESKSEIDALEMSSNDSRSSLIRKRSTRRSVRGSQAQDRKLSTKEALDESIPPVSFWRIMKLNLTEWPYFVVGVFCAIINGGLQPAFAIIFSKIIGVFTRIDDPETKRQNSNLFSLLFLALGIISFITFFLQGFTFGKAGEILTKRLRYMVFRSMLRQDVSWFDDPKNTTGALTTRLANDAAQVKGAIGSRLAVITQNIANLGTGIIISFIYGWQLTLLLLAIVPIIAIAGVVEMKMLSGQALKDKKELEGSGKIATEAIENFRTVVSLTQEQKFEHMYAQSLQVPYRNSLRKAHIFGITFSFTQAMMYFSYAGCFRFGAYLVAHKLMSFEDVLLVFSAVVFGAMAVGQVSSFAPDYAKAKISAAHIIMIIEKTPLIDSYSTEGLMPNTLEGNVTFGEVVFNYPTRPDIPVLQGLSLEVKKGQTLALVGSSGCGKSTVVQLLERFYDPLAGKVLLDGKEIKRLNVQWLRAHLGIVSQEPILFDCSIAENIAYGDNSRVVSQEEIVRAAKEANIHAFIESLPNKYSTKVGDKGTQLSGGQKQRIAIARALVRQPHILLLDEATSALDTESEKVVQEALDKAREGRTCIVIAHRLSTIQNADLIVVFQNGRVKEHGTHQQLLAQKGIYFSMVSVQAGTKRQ

Structure (SMILES) | ED50(MES) (mice [1]) | ED50(MES) (rats [2]) | Number of revertants, Mean ± SD [4] | MI (mutagenic index) [4] | Number of revertants, Mean ± SD (Vibrio harveyi BB7M [5]) | MI (mutagenic index) (Vibrio harveyi BB7M [5]) | Number of revertants, Mean ± SD (Vibrio harveyi BB7X [6]) | MI (mutagenic index) (Vibrio harveyi BB7X [6]) | Number of revertants, Mean ± SD (Vibrio harveyi BB7 [7]) | MI (mutagenic index) (Vibrio harveyi BB7 [7]) | Number of revertants, Mean ± SD (Vibrio harveyi BB7XM [8]) | MI (mutagenic index) (Vibrio harveyi BB7XM [8]) | Inhib. (%) of mutagenicity [9] | Number of revertants, Mean ± SD (antimutagenicity) [9] | Inhib. (%) of mutagenicity (Vibrio harveyi BB7M [10]) | Number of revertants, Mean ± SD (antimutagenicity) (Vibrio harveyi BB7M [10]) | Inhib. (%) of mutagenicity (Vibrio harveyi BB7XM [11]) | Number of revertants, Mean ± SD (antimutagenicity) (Vibrio harveyi BB7XM [11]) | Inhib. (%) of mutagenicity (Vibrio harveyi BB7X [12]) | Number of revertants, Mean ± SD (antimutagenicity) (Vibrio harveyi BB7X [12]) | other results
O=C1NC(=O)C(c2ccccc2)(c2ccccc2)N1 [PHT, phenytoin] | 6.48 ^# | 32.2 ^^ | – | – | – | – | – | – | – | – | – | – | – | – | – | – | – | – | – | – | TD50 (rats [3]; rats, p.o.): >500 ^^
Cc1cc(OCCN[C@H]2CCCC[C@@H]2O)ccc1Cl [Compound 2] | – | – | 3 ± 1 | 0.2 | 23 ± 3 | 1.1 | 10 ± 6 | 0.6 | 23 ± 5 | 1.2 | 10 ± 3 | 0.9 | (38) % | 14 ± 3 | (41) % | 20 ± 4 | (40) % | 14 ± 4 | (30) % | 21 ± 3 | Inhib. (%) of mutagenicity (Vibrio harveyi BB7 [13]): (38) %; Number of revertants, Mean ± SD (antimutagenicity) (Vibrio harveyi BB7 [13]): 23 ± 4
Cc1cc(OCCN[C@@H]2CCCC[C@H]2O)ccc1Cl [Compound 1] | 38.34 ^# | – | 9 ± 4 | 0.6 | 22 ± 3 | 1.0 | 16 ± 5 | 0.9 | 21 ± 3 | 1.1 | 18 ± 2 | 1.6 | (27) % | 16 ± 2 | (37) % | 22 ± 2 | (35) % | 16 ± 2 | (31) % | 20 ± 4 | Inhib. (%) of mutagenicity (Vibrio harveyi BB7 [13]): (32) %; Number of revertants, Mean ± SD (antimutagenicity) (Vibrio harveyi BB7 [13]): 26 ± 3; effect on P-gp ATPase activity (luminescence) [14]: more potent; ED50 (scMet) (mice [15]): >90.00 ^#scMet; TD50 (mice [16]; [18]): 66.03 ^#; TD50 (mice [16]; [19]): 66.03 ^#scMet
Cc1cc(OCCNC2CCCCC2O)ccc1Cl (stereo not drawn) [Compound 3] | 25.05 ^# | 99.25 ^^ | 6 ± 3 | 0.4 | 27 ± 4 | 1.7 | 13 ± 4 | 1.0 | 23 ± 3 | 1.4 | 15 ± 4 | 1.4 | (41) % | 13 ± 3 | (36) % | 22 ± 5 | (57) % | 10 ± 4 | (29) % | 21 ± 4 | cytotoxicity against human glioblastoma cells (MTT viability) [17]: less cytotoxic than the two enantiomers; Inhib. (%) of mutagenicity (Vibrio harveyi BB7 [13]): (51) %; Number of revertants, Mean ± SD (antimutagenicity) (Vibrio harveyi BB7 [13]): 19 ± 3; ED50 (scMet) (mice [15]): >150 ^#scMet; TD50 (mice [16]; [18]): 71.04 ^#; TD50 (mice [16]; [19]): 71.04 ^#scMet; TD50 (rats [3]; rats, p.o.): >250 ^^
NC(=O)N1c2ccccc2C=Cc2ccccc21 [CBZ, carbamazepine] | 9.85 ^# | 3.57 ^^ | – | – | – | – | – | – | – | – | – | – | – | – | – | – | – | – | – | – | TD50 (mice [16]; mouse, in vivo, ip): 47.8 ^#
CCCC(CCC)C(=O)O [VPA, valproate] | 287 ^# | 395 ^^ | – | – | – | – | – | – | – | – | – | – | – | – | – | – | – | – | – | – | TD50 (rats [3]; rat, in vivo, po): 859 ^^
